Tested on: rat primary dopaminergic neurons (TH positive neurons)
Assay: Neuroprotective effect on rat primary cultures of dopaminergic neurons injured by 6-OHDA (count of TH positive neurons)
Type: cell-based
Details: for survival of primary dopaminergic neuron culture (TH positive neurons), % of control: p<0.05 vs 6-OHDA
Procedure: Accordingly, this study investigates the effect of queuine on rat primary mesencephalic cultures injured by exposure to 6-OHDA.
Rat dopaminergic neurons are cultured as described by Schinelli et al. (1988) J. Neurochem. 50:1900-1907.
Briefly, pregnant female rats (Wistar rats; Janvier) at 15 days of gestation are killed by cervical dislocation and the fetuses are removed from the uterus. The embryonic midbrains is removed and placed in ice-cold Leibovitz medium (L15; PanBiotech) containing 2% of Penicillin-Streptomycin (PS; PanBiotech) and 1% of bovine serum albumin (BSA; PanBiotech). Only the ventral portions of the mesencephalic flexure is used for cell preparations as this is the region of the developing brain rich in dopaminergic neurons. The midbrain is dissociated by trypsinisation for 20 min at 37° C. (Trypsin EDTA 1X; PanBiotech). The reaction is stopped by the addition of Dulbecco's modified Eagle's medium (DMEM; PanBiotech) containing DNAse I grade II (0.1 mg/mL; Roche Diagnostic) and 10% of fetal calf serum (FCS; Invitrogen). The cells are mechanically dissociated by 3 passages through a 10 ml pipette. The dissociated cells are then centrifuged at 180×g for 10 min at 4° C. on a layer of BSA (3.5%) in L15 medium. The supernatant is discarded and the pelleted cells are re-suspended in a culture medium consisting of Neurobasal (Invitrogen, Ref: 21103, Batch: 1725098) supplemented with B27 (2%; Invitrogen, ref: 17504), L-glutamine (2 mM; PanBiotech, Ref: P04-80100) and 2% of PS, 10 ng/mL of BDNF (PanBiotech, Ref: CB-1115002) and 1 ng/mL of GDNF (PanBiotech, Ref: CB-1116001). Viable cells are counted in a Neubauer cytometer using the trypan blue exclusion test. The cells are then seeded at a density of 40 000 cells/well in 96 well-plates pre-coated with poly-D-lysine (Greiner) and are cultured at 37° C. in a humidified air (95%)/CO2 (5%) atmosphere. Half of the medium is changed every 2 days with fresh medium. In these conditions, after 5 days of culture, astrocytes are present in the culture and release growth factor allowing neurons differentiation. Five to six percent of the neuronal cell population are dopaminergic neurons.
Each condition is replicated in six wells of the 96-wells culture plates. 1.4. End Point Evaluation: Determination of the Total Number of Dopaminergic Neurons
At the end of the incubation time, the cells are fixed by a solution of 4% paraformaldehyde for 20 min at room temperature. The cells are then permeabilized and non-specific sites are blocked with a solution of phosphate buffered saline (PBS; PanBiotech) containing 0.1% of saponin (Sigma) and 1% fetal calf serum (FCS) for 15 min at room temperature. Eventually, the cells are incubated with a monoclonal anti-Tyrosine Hydroxylase (TH) mouse antibody (Sigma) in PBS containing 1% FCS and 0.1% saponin, for 2 h at room temperature. The anti-TH antibody targets dopaminergic neurons.
The nuclei of the cells is stained by a fluorescent marker (Hoechst solution, SIGMA) in the same solution.
For each condition, 20 pictures per well are taken using InCell Analyzer™ 2000 (GE Healthcare) with 20× magnification. Images of each culture well are also taken.
The analysis of the cell bodies of TH positive neurons are performed using Developer software (GE healthcare). A total of 6 data per experimental condition is provided. All values are expressed as mean±s.e. mean. For statistical analyses ANOVA is performed followed by Dunnett's test.

Molecule: NCCc1cc(O)c(O)cc1O [6-OHDA, 6-hydroxydopamine, reference compound]
- effect on number of TH positive neurons (6-OHDA alone at 20 μM for 48 h, FIG. 1 and FIG. 2): large and significant decrease

Molecule: Nc1nc2[nH]cc(CN[C@H]3C=C[C@H](O)[C@@H]3O)c2c(=O)[nH]1 [queuine, 7-(3,4-trans-4,5-cis-dihydroxy-1-cyclopenten-3-ylaminomethyl)-7-deazaguanine]
- effect on 6-OHDA-induced neurotoxicity (preliminary results, rat primary mesencephalic cultures): neuroprotective effect
- survival of primary dopaminergic neuron culture (TH positive neurons), % of control (queuine 0.3 μM added 6 days before 6-OHDA intoxication (20 μM, 48 h), FIG. 2): 80.47 % of the control
- survival of primary dopaminergic neuron culture (TH positive neurons), % of control (queuine 1 μM added 1 day (24 hours) before 6-OHDA intoxication (20 μM, 48 h), FIG. 1): 81.33 % of the control

B1: BDNF: brain-derived neurotrophic factor, obtained from PanBiotech, used as positive control (protein, UniProt P23560 19-247, looked up)
Neurotrophic factor BDNF …: APMKEANIRGQGGLAYPGVRTHGTLESVNGPKAGSRGLTSLADTFEHVIEELLDEDQKVRPNEENNKDADLYTSRVMLSSQVPLEPPLLFLLEEYKNYLDAANMSMRVRRHSDPARRGELSVCDSISEWVTAADKKTAVDMSGGTVTVLEKVPVSKGQLKQYFYETKCNPMGYTKEGCRGIDKRHWNSQCRTTQSYVRALTMDSKKRIGWRFIRIDTSCVCTLTIKRGR
- survival of primary dopaminergic neuron culture (TH positive neurons), % of control (BDNF 50 ng/mL applied 1 day before 6-OHDA intoxication (20 μM, 48 h), FIG. 1): 80.80 % of the control
- survival of primary dopaminergic neuron culture (TH positive neurons), % of control (BDNF 50 ng/mL applied 6 days before 6-OHDA intoxication (20 μM, 48 h), FIG. 2): 83.44 % of the control

Source: US11684611B2, “Compounds for treating diseases associated with a mitochondrial dysfunction” (Amabiotics, priority 2016, dated 2023)
